Reference: ChEMBL document CHEMBL3045244, “Design and synthesis of novel piperazine unit condensed 2,6-diarylpiperidin-4-one derivatives as antituberculosis and antimicrobial agents” (2012)
Converted amounts (≈) assume the structure as drawn. The source made the active and inactive calls. No cut-off for these calls is given here.

Key:
Aspergillus flavus [1] = assay: Antifungal activity against Aspergillus flavus ATCC 470 after 72 to 96 hr by two-fold serial dilution method; type: functional
Aspergillus niger [2] = assay: Antifungal activity against Aspergillus niger ATCC 591 after 72 to 96 hr by two-fold serial dilution method; type: functional
Rhizopus = assay: Antifungal activity against Rhizopus sp. ATCC 2920 after 72 to 96 hr by two-fold serial dilution method; type: functional
Candida albicans [3] = assay: Antifungal activity against Candida albicans ATCC 3130 after 72 to 96 hr by two-fold serial dilution method; type: functional
Cryptococcus neoformans = assay: Antifungal activity against Cryptococcus neoformans ATCC 3315 after 72 to 96 hr by two-fold serial dilution method; type: functional
Staphylococcus aureus [4] = assay: Antibacterial activity against Staphylococcus aureus ATCC 25833 at 200 ug/ml after 24 hr by two-fold serial dilution method; type: functional, organism-based
Klebsiella pneumoniae [5] = assay: Antibacterial activity against Klebsiella pneumoniae ATCC 15499 after 24 hr by two-fold serial dilution method; type: functional; conditions: ATCC 15499, 24 h
Escherichia coli = assay: Antibacterial activity against Escherichia coli ATCC 25840 after 24 hr by two-fold serial dilution method; type: functional; conditions: ATCC 25840, 24 h
Salmonella typhi [6] = assay: Antibacterial activity against Salmonella enterica subsp. enterica serovar Typhi ATCC 24930 after 24 hr by two-fold serial dilution method; type: functional; conditions: ATCC 24930, 24 h
Bacillus subtilis [7] = assay: Antibacterial activity against Bacillus subtilis ATCC 461 after 24 hr by two-fold serial dilution method; type: functional; conditions: ATCC 461, 24 h
[8] = test system: Mycobacterium tuberculosis; assay: Antituberculosis activity against Mycobacterium tuberculosis H37Rv ATCC 27294 after 21 days by BACTEC based radiometric respiratory technique; type: functional; conditions: H37Rv ATCC 27294, 504 h
Salmonella typhi [9] = assay: Antibacterial activity against Salmonella enterica subsp. enterica serovar Typhi ATCC 24930 at 200 ug/ml after 24 hr by two-fold serial dilution method; type: functional, organism-based
Staphylococcus aureus [10] = assay: Antibacterial activity against Staphylococcus aureus ATCC 25833 after 24 hr by two-fold serial dilution method; type: functional; conditions: ATCC 25833, 24 h
Candida albicans [11] = assay: Antifungal activity against Candida albicans ATCC 3130 at 200 ug/ml after 72 to 96 hr by two-fold serial dilution method; type: functional, organism-based
[12] = test system: Mycobacterium tuberculosis; assay: Ratio of rifampicin MIC to compound MIC for Mycobacterium tuberculosis H37Rv ATCC 27294; type: functional
[13] = test system: Mycobacterium tuberculosis; assay: Ratio of isoniazid MIC to compound MIC for Mycobacterium tuberculosis H37Rv ATCC 27294; type: functional
Aspergillus flavus [14] = assay: Antifungal activity against Aspergillus flavus ATCC 470 at 200 ug/ml after 72 to 96 hr by two-fold serial dilution method; type: functional, organism-based
Aspergillus niger [15] = assay: Antifungal activity against Aspergillus niger ATCC 591 at 200 ug/ml after 72 to 96 hr by two-fold serial dilution method; type: functional, organism-based
Klebsiella pneumoniae [16] = assay: Antibacterial activity against Klebsiella pneumoniae ATCC 15499 at 200 ug/ml after 24 hr by two-fold serial dilution method; type: functional, organism-based
Bacillus subtilis [17] = assay: Antibacterial activity against Bacillus subtilis ATCC 461 at 200 ug/ml after 24 hr by two-fold serial dilution method; type: functional, organism-based

SMILES | MIC (Aspergillus flavus [1]) [µg/mL] | MIC (Aspergillus niger [2]) [µg/mL] | MIC (Rhizopus) [µg/mL] | MIC (Candida albicans [3]) [µg/mL] | MIC (Cryptococcus neoformans) [µg/mL] | MIC (Klebsiella pneumoniae [5]) [µg/mL] | MIC (Escherichia coli) [µg/mL] | MIC (Salmonella typhi [6]) [µg/mL] | MIC (Bacillus subtilis [7]) [µg/mL] | MIC [8] [µg/mL] | MIC (Staphylococcus aureus [10]) [µg/mL] | Ratio [12] | Ratio [13] | also measured
C[C@@H]1[C@H](O)[C@@H](C)/C=C/C=C/C=C/C=C/C=C/C=C/C=C/[C@H](O[C@@H]2O[C@H](C)[C@@H](O)[C@H](N)[C@@H]2O)C[C@@H]2O[C@](O)(C[C@@H](O)C[C@@H](O)[C@H](O)CC[C@@H](O)C[C@@H](O)CC(=O)O[C@H]1C)C[C@H](O)[C@H]2C(=O)O [AMPHOTERICIN B] | 50 (≈ 54.1 µM) | 50 (≈ 54.1 µM) | 25 (≈ 27.1 µM) | 25 (≈ 27.1 µM) | 25 (≈ 27.1 µM) |  |  |  |  |  |  |  |  | 
CCOC(=O)N1CCN(CC(=O)N2C(c3ccc(C)cc3)CC(=O)C(C)C2c2ccc(C)cc2)CC1 (centres undefined) | 200 (≈ 407 µM) | 50 (≈ 102 µM) | 200 (≈ 407 µM) | 200 (≈ 407 µM) | 50 (≈ 102 µM) | 100 (≈ 203 µM) | 50 (≈ 102 µM) | 200 (≈ 407 µM) | 100 (≈ 203 µM) | > 256 |  |  |  | Activity (Staphylococcus aureus [4]): inactive
CCOC(=O)N1CCN(CC(=O)N2C(c3cccc(F)c3)CC(=O)C(C)C2c2cccc(F)c2)CC1 (centres undefined) | 100 (≈ 200 µM) | 25 (≈ 50 µM) | 50 (≈ 100 µM) | 6.25 (≈ 12.5 µM) | 12.5 (≈ 25 µM) | 6.25 (≈ 12.5 µM) | 6.25 (≈ 12.5 µM) |  | 100 (≈ 200 µM) | > 256 | 50 (≈ 100 µM) |  |  | Activity (Salmonella typhi [9]): inactive
CC1(C)S[C@@H]2[C@H](NC(=O)Cc3ccccc3)C(=O)N2[C@H]1C(=O)O [PENICILLIN G] |  |  |  |  |  | 25 (≈ 74.8 µM) | 12.5 (≈ 37.4 µM) | 50 (≈ 150 µM) | 12.5 (≈ 37.4 µM) |  | 50 (≈ 150 µM) |  |  | 
NNC(=O)c1ccncc1 [ISONIAZID] |  |  |  |  |  |  |  |  |  | 0.25 (≈ 1.82 µM) |  |  |  | 
CCOC(=O)N1CCN(CC(=O)N2C(c3ccc(F)cc3)CC(=O)C(C)C2c2ccc(F)cc2)CC1 (centres undefined) | 25 (≈ 50 µM) | 100 (≈ 200 µM) | 100 (≈ 200 µM) | 25 (≈ 50 µM) | 25 (≈ 50 µM) | 12.5 (≈ 25 µM) | 100 (≈ 200 µM) | 25 (≈ 50 µM) | 25 (≈ 50 µM) | > 256 | 50 (≈ 100 µM) |  |  | 
CCOC(=O)N1CCN(CC(=O)N2C(c3ccccc3)CC(=O)C(C)C2c2ccccc2)CC1 (centres undefined) | 200 (≈ 431 µM) | 100 (≈ 216 µM) | 200 (≈ 431 µM) |  | 50 (≈ 108 µM) | 200 (≈ 431 µM) | 50 (≈ 108 µM) | 100 (≈ 216 µM) | 50 (≈ 108 µM) | > 256 | 100 (≈ 216 µM) |  |  | Activity (Candida albicans [11]): inactive
CCOC(=O)N1CCN(CC(=O)N2C(c3ccc(OC)cc3)C(C)C(=O)C(C)C2c2ccc(OC)cc2)CC1 (centres undefined) | 100 (≈ 186 µM) | 100 (≈ 186 µM) | 50 (≈ 93 µM) |  | 200 (≈ 372 µM) | 100 (≈ 186 µM) | 200 (≈ 372 µM) | 100 (≈ 186 µM) | 50 (≈ 93 µM) | 16 (≈ 29.8 µM) | 100 (≈ 186 µM) | 200 | 1.56 | 
CCOC(=O)N1CCN(CC(=O)N2C(c3ccc(Cl)cc3)C(C)C(=O)C(C)C2c2ccc(Cl)cc2)CC1 (centres undefined) |  | 50 (≈ 91.5 µM) | 25 (≈ 45.7 µM) | 100 (≈ 183 µM) | 200 (≈ 366 µM) | 50 (≈ 91.5 µM) | 100 (≈ 183 µM) | 25 (≈ 45.7 µM) | 50 (≈ 91.5 µM) | 16 (≈ 29.3 µM) | 50 (≈ 91.5 µM) | 200 | 1.56 | Activity (Aspergillus flavus [14]): inactive
CCOC(=O)N1CCN(CC(=O)N2C(c3cccc(F)c3)C(C)C(=O)C(C)C2c2cccc(F)c2)CC1 (centres undefined) |  | 6.25 (≈ 12.2 µM) | 12.5 (≈ 24.3 µM) | 100 (≈ 195 µM) | 25 (≈ 48.7 µM) | 100 (≈ 195 µM) | 50 (≈ 97.4 µM) |  | 12.5 (≈ 24.3 µM) | 16 (≈ 31.2 µM) | 6.25 (≈ 12.2 µM) | 200 | 1.56 | Activity (Aspergillus flavus [1]): inactive; Activity (Salmonella typhi [9]): inactive
CCOC(=O)N1CCN(CC(=O)N2C(c3ccccc3)CC(=O)C(CC)C2c2ccccc2)CC1 (centres undefined) | 12.5 (≈ 26.2 µM) |  | 100 (≈ 209 µM) | 12.5 (≈ 26.2 µM) | 25 (≈ 52.3 µM) |  | 25 (≈ 52.3 µM) | 100 (≈ 209 µM) | 50 (≈ 105 µM) | 16 (≈ 33.5 µM) | 200 (≈ 419 µM) | 200 | 1.56 | Activity (Aspergillus niger [15]): inactive; Activity (Klebsiella pneumoniae [16]): inactive
CCOC(=O)N1CCN(CC(=O)N2C(c3ccc(F)cc3)CC(=O)C(CC)C2c2ccc(F)cc2)CC1 (centres undefined) | 100 (≈ 195 µM) | 12.5 (≈ 24.3 µM) | 12.5 (≈ 24.3 µM) | 50 (≈ 97.4 µM) | 100 (≈ 195 µM) | 12.5 (≈ 24.3 µM) | 12.5 (≈ 24.3 µM) | 50 (≈ 97.4 µM) | 100 (≈ 195 µM) | 64 (≈ 125 µM) | 100 (≈ 195 µM) | 50 | 0.39 | 
CO[C@H]1/C=C/O[C@@]2(C)Oc3c(C)c(O)c4c(O)c(c(/C=N/N5CCN(C)CC5)c(O)c4c3C2=O)NC(=O)/C(C)=C\C=C\[C@H](C)[C@H](O)[C@@H](C)[C@@H](O)[C@@H](C)[C@H](OC(C)=O)[C@@H]1C [RIFAMPIN] |  |  |  |  |  |  |  |  |  | 32 (≈ 38.9 µM) |  |  |  | 
CCOC(=O)N1CCN(CC(=O)N2C(c3ccccc3)C(C)C(=O)C(C)C2c2ccccc2)CC1 (centres undefined) | 100 (≈ 209 µM) | 100 (≈ 209 µM) | 100 (≈ 209 µM) | 100 (≈ 209 µM) | 25 (≈ 52.3 µM) | 50 (≈ 105 µM) | 25 (≈ 52.3 µM) |  |  |  | 200 (≈ 419 µM) |  |  | Activity (Bacillus subtilis [17]): inactive
